Tests used:
[1] = tested on: genotype A, "Long" strain RSV; assay: RSV-A assay (CPE protection in Hep-2 cells, ATPlite readout); type: cell-based, Human respiratory syncytial virus (HRSV); conditions: human respiratory syncytial virus, genotype A “Long” strain RSV, MOI 0.1, CPE protection, read-out: Human RSV-A (“Long”)
Method in brief: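 Hep-2 cells (8,000/well) infected with RSV Long strain at MOI 0.1 in the presence of 2-fold compound dilutions in duplicate. After 5 days, cell viability measured by ATPlite luminescence, normalized between virus-only and uninfected cell controls; EC50 reported.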

[2] = tested on: HMPV clinical isolate TN/1501/A1; assay: HMPV antiviral assay Method-B (clinical isolate TN/1501/A1 in LLC-MK2 cells, ATP-Lite readout); type: cell-based, Human metapneumovirus (HMPV); conditions: human metapneumovirus, LLC-MK2, 144 h, hMPV WT1501 (clinical isolate TN/1501/A1), 6 days
Experimental: In vitro HMPV antiviral activity was evaluated using the clinical isolate TN/1501/A1 and LLC-MK2 cells (ATCC #CCL-7), an immortalized kidney epithelial cell line from Macaca mulatta. Compounds were resuspended in dimethyl sulfoxide (DMSO) at 10 mM and added to a 384-well source plate. The compounds were diluted and transferred onto 384-well assay plates using the Echo-650 automated liquid handling system (Beckman Coulter, Indiana). The test compounds were assessed in duplicate at a top concentration of 10 μM followed by 3-fold serial dilutions to give a total of 10 concentration points. DMSO control wells were also included on the assay plates and were either infected or not, acting as positive and negative controls. TN/1501/A1 virus infections were performed in-suspension with LLC-MK2 cells. The cells were washed twice with PBS and removed from the cell-culture flask with 0.25% trypsin-EDTA (Thermo Fisher Scientific, MA). The trypsin-EDTA was inactivated by resuspending in 2% fetal bovine serum (FBS) and OptiMEM (ThermoFisher Scientific, MA) containing 1% penicillin-streptomycin. Cells were pelleted by centrifuging for 5 minutes at 800 rpm, the supernatant was removed, and cells were suspended in PBS plus 100 μg/mL CaCl2). This step was performed twice. Cells were then resuspended in serum-free (SF)-OptiMEM containing 4 μg/mL TPCK-Trypsin (Sigma Aldrich, MO), 1% penicillin-streptomycin (ThermoFisher Scientific, MA) and 100 μg/mL CaCl2). Cells were counted and seeded at a density of 5,000 cells/well, 12.5 μL/well. Virus infections were done at a multiplicity of infection (MOI) of 0.014 with 12.5 μL added per well. SF-OptiMEM, 12.5 μL/well, was added to the appropriate wells to serve as a virus-free negative control for the assay. The final concentration of TPCK-trypsin was 2 μg/mL. Plates were incubated at 37° C., 5% CO2 for 6 days. After 6 days incubation, 12.5 μL of ATP-Lite (PerkinElmer, MA) was added to each well and the raw luminescence values were determined using the Envision 2104 (Perkin Elmer, MA). The average of the raw luminescence values for the cells and virus only positive control wells was subtracted from all conditions tested and the percent cell health was determined by dividing these values by the average of the cells only negative control wells. EC50 values were then calculated by non-linear regression using a four-parameter curve logistic equation. The curve fit model employed was XLFit Dose Response One Site Model 200: y=(A+(B/(1+((x/C)^D)))), where A is the minimum y value, B is the maximum y value, C is the log EC50 value, and D is the slope factor. […] EC50 ranges are as follows: A<0.5 μM; B>0.5 μM.

EC50 [1] [nM]	EC50 [2] [nM]	SMILES
< 200	< 500	COc1cc(C(=O)NC[C@](O)(c2cc3c(c(-c4ccc(F)cc4Cl)n2)OC[C@]3(C)C(N)=O)C(F)(F)F)cc2cc(Br)cnc12 [Example 521]
< 200	< 500	COc1cc(C(=O)NC[C@](O)(c2cc3c(c(-c4ccc(F)c(F)c4F)n2)OC[C@]3(C)C(N)=O)C(F)(F)F)cc2cn(C3(F)CC3)nc12 [Example 522]
< 200	< 500	Cc1cnc2c(OC(F)F)cc(C(=O)NC[C@](O)(c3cc4c(c(-c5ccc(F)c(F)c5F)n3)OC[C@]4(C)C(N)=O)C(F)(F)F)cc2c1 [Example 523]
< 200	< 500	Cc1cnc2c(OC(F)F)cc(C(=O)NC[C@](O)(c3cc4c(c(-c5ccc(F)cc5Cl)n3)OC[C@]4(C)C(N)=O)C(F)(F)F)cc2c1 [Example 524]
< 200	< 500	COc1cc(C(=O)NC[C@](O)(c2cc3c(c(-c4ccc(F)c(F)c4F)n2)OC[C@]3(C)C(N)=O)C2CC2)cc2cn(C3CC3)nc12 [Example 525]
< 200	< 500	COc1cc(C(=O)NC[C@](O)(c2cc3c(c(-c4ccc(F)c(F)c4F)n2)OC[C@]3(C)C(N)=O)C2CC2)cc2cc(Cl)c(C)nc12 [Example 526]
< 200	< 500	Cc1cnc2c(OC(F)F)cc(C(=O)NC[C@](O)(c3cc4c(c(-c5ccc(F)c(F)c5F)n3)OC[C@]4(C)C(N)=O)C3CC3)cc2c1 [Example 527]
< 200	< 500	COc1cc(C(=O)NC[C@](O)(c2cc3c(c(-c4ccc(F)c(F)c4F)n2)OC[C@]3(C)C(N)=O)C2CC2)cc2cn(C(F)F)nc12 [Example 528]
< 200	< 500	COc1cc(C(=O)NC[C@](O)(c2cc3c(c(-c4ccc(F)cc4Cl)n2)OC[C@]3(C)C(N)=O)C(F)(F)F)cc2cn(C(F)F)nc12 [Example 529]
< 200	< 500	Cc1nc2c(OC3CC3)cc(C(=O)NC[C@](O)(c3cc4c(c(-c5ccc(F)c(F)c5F)n3)OC[C@]4(C)C(N)=O)C3CC3)cc2cc1Cl [Example 530]
< 200	< 500	Cc1cnc2c(Cl)cc(C(=O)NC[C@](O)(c3cc4c(c(-c5ccc(F)c(F)c5F)n3)OC[C@]4(C)C(N)=O)C3CC3)cc2c1 [Example 531]
< 200	< 500	COc1cc(C(=O)NC[C@](O)(c2cc3c(c(-c4ccc(F)c(F)c4F)n2)OC[C@]3(C)C(N)=O)C2CC2)cc2cc(Br)cnc12 [Example 532]
< 200	< 500	COc1cc(C(=O)NC[C@](O)(c2cc3c(c(-c4ccc(F)c(F)c4Cl)n2)OC[C@]3(C)C(N)=O)C2CC2)cc2cn(C3CC3)nc12 [Example 533]
< 200	< 500	COc1cc(C(=O)NC[C@](O)(c2cc3c(c(-c4ccc(F)c(F)c4)n2)OC[C@]3(C)C(N)=O)C2CC2)cc2cn(C3CC3)nc12 [Example 534]
< 200	< 500	COc1cc(C(=O)NC[C@](O)(c2cc3c(c(-c4cc(Cl)ccc4F)n2)OC[C@]3(C)C(N)=O)C2CC2)cc2cn(C3CC3)nc12 [Example 536]
< 200	< 500	COc1cc(C(=O)NC[C@](O)(c2cc3c(c(-c4ccc(F)c(F)c4F)n2)OC[C@]3(C)C(N)=O)C2CC2)cc2cn(C3(F)CC3)nc12 [Example 537]
< 200	< 500	Cc1cnc2c(OC(F)F)cc(C(=O)NC[C@](O)(c3cc4c(c(-c5ccc6c(c5)OC(F)(F)O6)n3)OC[C@]4(C)C(N)=O)C3CC3)cc2c1 [Example 538]
< 200	< 500	Cc1cnc2c(Cl)cc(C(=O)NC[C@](O)(c3cc4c(c(-c5ccc6c(c5)OC(F)(F)O6)n3)OC[C@]4(C)C(N)=O)C3CC3)cc2c1 [Example 539]

EC50 [1] [nM]	EC50 [2] [nM]	SMILES
< 200	< 500	Cc1nc2c(OC3CC3)cc(C(=O)NC[C@](O)(c3cc4c(c(-c5ccc6c(c5)OC(F)(F)O6)n3)OC[C@]4(C)C(N)=O)C3CC3)cc2cc1Cl [Example 540]
< 200	< 500	Cc1cnc2c(OCC(F)F)cc(C(=O)NC[C@](O)(c3cc4c(c(-c5ccc6c(c5)OC(F)(F)O6)n3)OC[C@]4(C)C(N)=O)C3CC3)cc2c1 [Example 541]
< 200	< 500	Cc1cnc2c(OC(F)(F)F)cc(C(=O)NC[C@](O)(c3cc4c(c(-c5ccc6c(c5)OC(F)(F)O6)n3)OC[C@]4(C)C(N)=O)C3CC3)cc2c1 [Example 542]
< 200	< 500	COc1cc(C(=O)NC[C@](O)(c2cc3c(c(-c4ccc5c(c4)OC(F)(F)O5)n2)OC[C@]3(C)C(N)=O)C2CC2)cc2cc(Br)cnc12 [Example 543]
< 200	< 500	C[C@]1(C(N)=O)COc2c1cc([C@@](O)(CNC(=O)c1cc(F)c3nn(C4CC4)cc3c1)C(F)(F)F)nc2-c1ccc2c(c1)OC(F)(F)O2 [Example 544]
< 200	< 500	C[C@]1(C(N)=O)COc2c1cc([C@@](O)(CNC(=O)c1cc(F)c3nn(C4CC4)cc3c1)C1CC1)nc2-c1ccc2c(c1)OC(F)(F)O2 [Example 545]
< 200	< 500	C[C@]1(C(N)=O)COc2c1cc([C@@](O)(CNC(=O)c1cc(Cl)c3nn(C4CC4)cc3c1)C(F)(F)F)nc2-c1ccc2c(c1)OC(F)(F)O2 [Example 546]
< 200	< 500	C[C@]1(C(N)=O)COc2c1cc([C@@](O)(CNC(=O)c1cc(Cl)c3nn(C4CC4)cc3c1)C1CC1)nc2-c1ccc2c(c1)OC(F)(F)O2 [Example 547]
< 200	< 500	C[C@]1(C(N)=O)COc2c1cc([C@@](O)(CNC(=O)c1cc(F)c3nc(C4CC4)cn3c1)C(F)(F)F)nc2-c1ccc2c(c1)OC(F)(F)O2 [Example 548]
< 200	< 500	C[C@]1(C(N)=O)COc2c1cc([C@@](O)(CNC(=O)c1cc(F)c3nc(C4CC4)cn3c1)C1CC1)nc2-c1ccc2c(c1)OC(F)(F)O2 [Example 549]
< 200	< 500	COc1cc(C(=O)NC[C@](O)(c2cc3c(c(-c4ccc(F)c(Cl)c4F)n2)OC[C@]3(C)C(N)=O)C(F)(F)F)cc2cn(C3(F)CC3)nc12 [Example 550]
< 200	< 500	COc1cc(C(=O)NC[C@](O)(c2cc3c(c(-c4ccc(F)c(Cl)c4F)n2)OC[C@]3(C)C(N)=O)C(F)(F)F)cc2cn(C(F)F)nc12 [Example 551]
< 200	< 500	COc1cc(C(=O)NC[C@](O)(c2cc3c(c(-c4ccc(F)c(Cl)c4F)n2)OC[C@]3(C)C(N)=O)C(F)(F)F)cc2cc(Cl)c(C)nc12 [Example 552]
< 200	< 500	Cc1cnc2c(OC(F)F)cc(C(=O)NC[C@](O)(c3cc4c(c(-c5ccc(F)c(Cl)c5F)n3)OC[C@]4(C)C(N)=O)C(F)(F)F)cc2c1 [Example 553]
< 200	< 500	COc1cc(C(=O)NC[C@](O)(c2cc3c(c(-c4ccc(F)c(Cl)c4F)n2)OC[C@]3(C)C(N)=O)C2CC2)cc2cn(C3CC3)nc12 [Example 554]
< 200	< 500	COc1cc(C(=O)NC[C@](O)(c2cc3c(c(-c4ccc(F)c(Cl)c4F)n2)OC[C@]3(C)C(N)=O)C2CC2)cc2cn(C3(F)CC3)nc12 [Example 555]
< 200	< 500	COc1cc(C(=O)NC[C@](O)(c2cc3c(c(-c4ccc(F)c(Cl)c4F)n2)OC[C@]3(C)C(N)=O)C2CC2)cc2cn(C(F)F)nc12 [Example 556]

Source: patent US12612412B2, “Antiviral heterocyclic compounds” (Enanta Pharmaceuticals, Inc., priority 2021, dated 2026)
